Measured values: article PMC4774972, “Activity and Predicted Nephrotoxicity of Synthetic Antibiotics Based on Polymyxin B” (Journal of Medicinal Chemistry, 2016)
Values after ≈ are worked out from the molar mass of the structure shown. Where two headings read alike, the source gives them in different places. Numbered stars: 1 amine (or outer) side, 2 acyl side, 3 side chain; on linkers, the order of the positions; unused ones are H or OH. Bridge positions count the residues as written; N and C are the ends. Square brackets hold non-standard residues; d marks the D form. Peptide text beside a SMILES is read from it. * marks the point of attachment. Phe(4-NH2) = Nc1ccc(C[C@H](N)C(=O)O)cc1; X1 = c1ccc(-c2ccc(N*)cc2)cc1; dDab = NCC[C@@H](N)C(=O)O; Octanoyl = CCCCCCCC(=O)*; Dab = NCC[C@H](N)C(=O)O; CO = O=C([*:1])[*:2]

Tests used:
[1] = system: K. pneumoniae CI 138-16357-20362, PmxR; settings: MIC K. pneumoniae CI 138-16357-20362, PmxR (µg/mL)
HepG2 = settings: CC50 HepG2 (µM)
[2] = system: K. pneumoniae CI 138-16357-20362, PmxR; assay: microbe, parasite or virus in culture; type: cell-based, Klebsiella pneumoniae; settings: carbapenem & polymyxin resistant clinical isolate; MHB, 5 × 10^5 CFU/mL, 18 h at 37 °C
Procedure: (§1) Bacteria were either obtained from American Type Culture Collection (ATCC; Manassas, VA, USA) or independent academic clinical isolate collections, as listed in Table S2. Bacteria were cultured in nutrient broth (NB; Bacto Laboratories, catalog no. 234000) or Muller Hinton broth (MHB; Bacto Laboratories, catalog no. 211443) at 37 °C overnight with shaking (∼180 rpm). A sample of each culture was then diluted 50-fold in fresh MHB and incubated at 37 °C for 1.5–3 h with shaking (∼180 rpm). Compound stock solutions were prepared as 0.64 or 2.56 mg/mL in water. The compounds, at twice the final desired concentration, were serially diluted 2-fold across the wells of 96-well plates (Polystyrene, Corning, catalogue No. 3370). Mid log phase bacterial cultures (after 1.5–3 h incubation) were diluted to a final concentration of 5 × 10^5 colony forming units (CFU)/mL, and 50 μL was added to each well giving a final compound concentration range of 32 μg/mL to 0.015 μg/mL (128–0.06 μg/mL for colistin and polymyxin B against the polymyxin resistant clinical isolates). MICs were determined visually after 18 h of incubation at 37 °C, with the MIC defined as the lowest compound concentration at which no bacterial growth was visible.
(§2) Table S2. Bacterial strains used for Minimum Inhibitory Concentration (MIC) […]
(§3) Organism Strain Strain description Strain Source
(§4) Escherichia coli ATCC 25922 FDA strain Seattle 1946 ATCC
(§5) Klebsiella pneumoniae ATCC 13883 Control strain ATCC
(§6) Klebsiella pneumoniae ATCC 700603 Multi-drug resistant ATCC
(§7) Klebsiella pneumoniae BAA-2146 Metallo-beta-lactamase- ATCC
(§8) Acinetobacter baumannii ATCC 19606 Type strain ATCC
(§9) Pseudomonas aeruginosa ATCC 27853 Type strain ATCC
(§10) Pseudomonas aeruginosa FADDI-PA070 Clinical isolate, Nation and Li labs, polymyxin resistant Monash University
(§11) Clinical isolate, Wang Hengzhuang, Pseudomonas aeruginosa PA9704 polymyxin resistant University Hospital of […]
(§12) Ptyela Clinical isolate, Ilias Karaiskos and Acinetobacter baumannii Carbapenem & Helen Giamarellou
(§13) Clinical isolate, Medicine, Hygeia
(§14) Klebsiella pneumoniae Koprana Carbapenem, & General Hospital, […]
(§15) Clinical isolate, (Instituto Dante […]
(§16) polymyxin resistant Cardiologia, São […]

[3] = system: primary human renal proximal tubule epithelial (hPT) cells; assay: Nephrotoxicity assay, LDH release; type: cell-based; settings: primary human kidney cells
Description: (§17) Primary human renal proximal tubule epithelial (hPT) cells were isolated and used for in vitro prediction of drug-induced nephrotoxicity[63],[64],[69] by measuring the release of metabolism enzymes, LDH and GGT, as previously described.[70]

[4] = system: primary human renal proximal tubule epithelial (hPT) cells; assay: Nephrotoxicity assay, GGT release; type: cell-based; settings: primary human kidney cells
Description: as §17

A. baumannii ATCC 19606 = settings: MIC A. baumannii ATCC 19606 (µg/mL)
[5] = system: A. baumannii CI Ptyela 100734512:2, PmxR; settings: MIC A. baumannii CI Ptyela 100734512:2, PmxR (µg/mL)
[6] = system: K. pneumoniae CI Koprana 100650661:1, PmxR; settings: MIC K. pneumoniae CI Koprana 100650661:1, PmxR (µg/mL)
[7] = system: P. aeruginosa FADDI-PA070, PmxR; settings: MIC P. aeruginosa FADDI-PA070, PmxR (µg/mL)
[8] = system: P. aeruginosa PA9704, PmxR; settings: MIC P. aeruginosa PA9704, PmxR (µg/mL)
[9] = system: S. aureus ATCC 25923, MSSA; settings: MIC S. aureus ATCC 25923, MSSA (µg/mL)
[10] = system: K. pneumoniae CI Koprana 100650661:1, PmxR; assay: microbe, parasite or virus in culture; type: cell-based, Klebsiella pneumoniae; settings: carbapenem & polymyxin resistant clinical isolate; MHB, 5 × 10^5 CFU/mL, 18 h at 37 °C
Procedure: as §1, §2, §3, §4, §5, §6, §7, §8, §9, §10, §11, §12, §13, §14, §15, §16

[11] = system: A. baumannii CI Ptyela 100734512:2, PmxR; assay: microbe, parasite or virus in culture; type: cell-based, Acinetobacter baumannii; settings: carbapenem & polymyxin resistant clinical isolate; MHB, 5 × 10^5 CFU/mL, 18 h at 37 °C
Procedure: as §1, §2, §3, §4, §5, §6, §7, §8, §9, §10, §11, §12, §13, §14, §15, §16

[12] = system: S. aureus ATCC 25923, MSSA; assay: microbe, parasite or virus in culture; type: cell-based, Staphylococcus aureus
Procedure: as §1, §2, §3, §4, §5, §6, §7, §8, §9, §10, §11, §12, §13, §14, §15, §16

HepG2 cells = assay: Cytotoxicity assay (resazurin assay); type: cell-based, human; settings: 4000 cells/well, 24 h incubation with compound, fluorescence 560/590
Procedure: Cytotoxicity to HEK293 and HepG2 cells was determined using the resazurin assay.[67],[68] […] Compounds were then added into each well. After 24 h incubation, 5 μM resazurin was added per well and incubated at 37 °C for 2 h. Fluorescence intensity was then read using a Polarstar Omega with excitation/emission 560/590. The data were then analyzed using GraphPad Prism 6 software. CC50 values were determined using GraphPad Prism 6 software (Inc. La Jolla, CA).

K. pneumoniae ATCC 13883 = settings: MIC K. pneumoniae ATCC 13883 (µg/mL)

Compound | MIC [1] | CC50 (HepG2) | MIC K. pneumoniae CI 138-16357-20362, PmxR [2] | LDH release CC50 [3] | GGT release CC50 [4] | MIC (A. baumannii ATCC 19606) | MIC [5] | MIC [6] | MIC [7] | MIC [8] | MIC [9] | MIC K. pneumoniae CI Koprana 100650661:1, PmxR [10] | MIC A. baumannii CI Ptyela 100734512:2, PmxR [11] | MIC S. aureus ATCC 25923, MSSA ([12]; ATCC 25923, 18 h) | HepG2 - CC50 (HepG2 cells) | MIC ([12]; Staphylococcus aureus, 18 h, read-out: MIC S. aureus ATCC 25923, MSSA) | MIC (K. pneumoniae ATCC 13883)
CC(C)C[C@@H]1NC(=O)[C@@H](Cc2ccccc2)NC(=O)[C@H](CCN)NC(=O)[C@@H](NC(=O)[C@H](CCN)NC(=O)[C@@H](NC(=O)[C@H](CCN)NC(=O)Nc2ccc(-c3ccccc3)cc2)[C@@H](C)O)CCNC(=O)[C@H]([C@@H](C)O)NC(=O)[C@H](CCN)NC(=O)[C@H](CCN)NC1=O [Compound 15] ({X1-CO}-[Dab]T[Dab][Dab][Dab][dF]L[Dab][Dab]T; lactam 4-C) | > 32 µg/mL | 316 µM | >32 µg/mL | >128 µg/mL | >128 µg/mL | – | – | – | – | – | – | – | – | – | – | – | –
CCCCCCCC(=O)NCC(=O)N[C@@H](CCN)C(=O)N[C@H](C(=O)N[C@H]1CCNC(=O)[C@H]([C@@H](C)O)NC(=O)[C@H](CCN)NC(=O)[C@H](CCN)NC(=O)[C@H](CC(C)C)NC(=O)[C@@H](Cc2ccccc2)NC(=O)[C@H](CCN)NC1=O)[C@@H](C)O [Compound 41] (Octanoyl-G[Dab]T[Dab][Dab][dF]L[Dab][Dab]T; lactam 4-C) | > 32 µg/mL | > 300 µM | >32 µg/mL | – | – | > 32 µg/mL | > 32 µg/mL | > 32 µg/mL | > 32 µg/mL | > 32 µg/mL | > 32 µg/mL | >32 µg/mL | – | – | – | – | –
CCCCCCCC(=O)N[C@@H](CCN)C(=O)N[C@H](C(=O)N[C@H](CCN)C(=O)N[C@H]1CCNC(=O)[C@H]([C@@H](C)O)NC(=O)[C@H](CCN)NC(=O)[C@H](CCN)NC(=O)[C@H](CC(C)C)NC(=O)[C@@H](Cc2ccccc2)NC(=O)[C@H](CCN)NC1=O)[C@@H](C)O [Compound 36] (Octanoyl-[Dab]T[dDab][Dab][Dab][dF]L[Dab][Dab]T; lactam 4-C) | > 32 µg/mL | > 300 µM | >32 µg/mL | – | – | – | > 32 µg/mL | > 32 µg/mL | > 32 µg/mL | – | > 32 µg/mL | >32 µg/mL | >32 µg/mL | >32 µg/mL | >300 µM | – | –
CN[C@@H](CC(C)C)C(=O)N[C@H]1C(=O)N[C@@H](CC(N)=O)C(=O)N[C@H]2C(=O)N[C@H]3C(=O)N[C@H](C(=O)N[C@@H](C(=O)O)c4cc(O)cc(O)c4-c4cc3ccc4O)[C@H](O)c3ccc(c(Cl)c3)Oc3cc2cc(c3O[C@H]2O[C@@H](CO)[C@H](O)[C@@H](O)[C@@H]2O[C@@H]2C[C@@](C)(N)[C@@H](O)[C@@H](C)O2)Oc2ccc(cc2Cl)[C@H]1O [Vancomycin, reference compound] | – | – | – | – | – | – | – | – | – | – | – | – | – | – | >300 µM | 2 µg/mL (≈ 1.38 µM) | –
CCCCCCCC(=O)N[C@@H](CCN)C(=O)N[C@H](C(=O)N[C@@H](CCN)C(=O)N[C@H]1CCNC(=O)[C@H]([C@@H](C)O)NC(=O)[C@H](Cc2ccc(N)cc2)NC(=O)[C@H](CCN)NC(=O)[C@H](CC(C)C)NC(=O)[C@@H](Cc2ccccc2)NC(=O)[C@H](CCN)NC1=O)[C@@H](C)O [Compound 20] (Octanoyl-[Dab]T[Dab][Dab][Dab][dF]L[Dab][Phe(4-NH2)]T; lactam 4-C) | > 32 µg/mL | > 300 µM | >32 µg/mL | – | – | > 32 µg/mL | > 32 µg/mL | > 32 µg/mL | > 32 µg/mL | > 32 µg/mL | > 32 µg/mL | >32 µg/mL | – | – | – | – | > 32 µg/mL
CCCCCCCC(=O)N[C@@H](CCN)C(=O)N[C@H](C(=O)N[C@@H](CCN)C(=O)N[C@H]1CCNC(=O)[C@H]([C@@H](C)O)NC(=O)[C@H](CCCNC(=N)N)NC(=O)[C@H](CCN)NC(=O)[C@H](CC(C)C)NC(=O)[C@@H](Cc2ccccc2)NC(=O)[C@H](CCN)NC1=O)[C@@H](C)O [Compound 21] (Octanoyl-[Dab]T[Dab][Dab][Dab][dF]L[Dab]RT; lactam 4-C) | > 32 µg/mL | > 300 µM | >32 µg/mL | – | – | – | > 32 µg/mL | > 32 µg/mL | > 32 µg/mL | > 32 µg/mL | > 32 µg/mL | >32 µg/mL | – | – | – | – | > 32 µg/mL
CCCCCCCC(=O)N[C@@H](CCN)C(=O)N[C@H](C(=O)N[C@@H](CCN)C(=O)N[C@H]1CCNC(=O)[C@H]([C@@H](C)O)NC(=O)[C@H](CCNC(=O)[C@@H](N)CCC(=O)O)NC(=O)[C@H](CCN)NC(=O)[C@H](CC(C)C)NC(=O)[C@@H](Cc2ccccc2)NC(=O)[C@H](CCN)NC1=O)[C@@H](C)O [Compound 19] (Octanoyl-[Dab]T[Dab][Dab][Dab][dF]L[Dab][Dab](Glu)T; lactam 4-C) | > 32 µg/mL | > 300 µM | >32 µg/mL | – | – | – | > 32 µg/mL | > 32 µg/mL | > 32 µg/mL | > 32 µg/mL | > 32 µg/mL | >32 µg/mL | – | – | – | – | –
CCCCCCCC(=O)N[C@@H](CCN)C(=O)N[C@H](C(=O)N[C@@H](CCN)C(=O)N[C@H]1CCNC(=O)[C@H]([C@@H](C)O)NC(=O)[C@H](CCN)NC(=O)[C@H](CCN)NC(=O)[C@H](CC(C)C)NC(=O)[C@@H](Cc2ccccc2)NC(=O)[C@H](CCCNC(=N)N)NC1=O)[C@@H](C)O [Compound 35] (Octanoyl-[Dab]T[Dab][Dab]R[dF]L[Dab][Dab]T; lactam 4-C) | > 32 µg/mL | > 300 µM | >32 µg/mL | – | – | > 32 µg/mL | > 32 µg/mL | > 32 µg/mL | > 32 µg/mL | > 32 µg/mL | > 32 µg/mL | >32 µg/mL | – | – | – | – | > 32 µg/mL
